Tested on: western and northern corn rootworm
Assay: Field trial, corn rootworm damage by Iowa class and synergy test, Example 3
Format: in vivo
Text: A field trial was established and completed in accordance with pertinent protocols and in conformance with USDA notification requirements. The purpose of the trial was to determine the efficacy of transgenic event Cry3Bb.11231 in corn seed in combination with corn rootworm seed treatments using imidacloprid.
For each growing site that was selected, the plot design included the following:
The following seed treatment combinations were used for each growing area:
All seed treatments with pesticides were carried out as described in Example 1. In seed treatment number 1 and 2, Gaucho® was used for wire worm protection, but at levels sufficiently low that it would be expected to have no effect on corn rootworms (i.e., at a treatment level of about 60 gm of active/100 kg seed or 0.16 mg active/kernel), otherwise, seed receiving treatment number 2 had only transgenic event Cry3Bb.11231 and no pesticide treatment that would be expected to be effective against corn rootworm.
For seeds having treatments numbered 3 through 5, the pesticides were applied by the methods described in Example 1. For seeds having treatment numbers 6 and 7, commercially available Force® 3G and Lorsban® 15G were applied to the soil in a 5″ band at the time of sowing. The levels of application are as shown and are within the ranges recommended for standard commercial practice.
Corn seeds to be tested were planted and grown at four different locations across several Midwestern states in the United States corn belt according to the protocol described above.
The determination of damage by corn root worm was made according to the protocol described in Example 2.
Cry3Bb.11231 transgenic event was tested for possible synergy at a level of rootworm damage of 3-6. In the first test, shown in Table 2, the percentage of test plants having damage levels of from 3 to 6, on the Iowa 1-6 Scale, was determined for the control and for seeds treated with the pesticide at two levels, and for seeds having the transgenic event, alone and in combination. The following formula was then used to calculate a “synergy threshold”: (% of control Cry3Bb.11231)*(% of control imidacloprid treatment)/100.
This threshold was compared against the percent of control for the treatment combination (i.e., Cry3Bb.11231 with imidacloprid @ 400 gm/100 kg). If the treatment combination percent of control was below the threshold, then it was concluded that there was synergy.
It was believed that the measurement of rootworm damage at higher damage levels (i.e., levels 3-6) is a useful indicator that correlates with subsequent yield loss due to such damage. The reason for this is that rootworm damage at levels 1 and 2 seldom causes corn plants to fall over and lodge, and such minimal root loss is not believed to reduce the number or weight of kernels per ear. However, root damage at levels of 3 and above increasingly causes lodging and loss of yield. Therefore, it is believed that the summed damage levels of 3-6 (and in some cases, 4-6 and 5 and 6), provides a useful indication of the effect of corn rootworm damage on subsequent corn yield.

O=[N+]([O-])NC1=NCCN1Cc1ccc(Cl)nc1 [Imidacloprid, 1-[(6-chloro-3-pyridinyl)methol]-N-nitro-2-imidazolidinimime]
effectiveness against corn rootworm damage (imidacloprid at 400 gm/100 kg of seed): effective against corn rootworm damage | CORN ROOTWORM DAMAGE IN EACH IOWA CLASS (IOWA 1-6 SCALE) 1 (number of plants in Iowa class 1, imidacloprid at 400 g/100 kg seed): 3 | CORN ROOTWORM DAMAGE IN EACH IOWA CLASS (IOWA 1-6 SCALE) 2 (number of plants in Iowa class 2, imidacloprid at 400 g/100 kg seed): 15 | CORN ROOTWORM DAMAGE IN EACH IOWA CLASS (IOWA 1-6 SCALE) 3 (number of plants in Iowa class 3, imidacloprid at 400 g/100 kg seed): 36 | CORN ROOTWORM DAMAGE IN EACH IOWA CLASS (IOWA 1-6 SCALE) 4 (number of plants in Iowa class 4, imidacloprid at 400 g/100 kg seed): 21 | CORN ROOTWORM DAMAGE IN EACH IOWA CLASS (IOWA 1-6 SCALE) 5 (number of plants in Iowa class 5, imidacloprid at 400 g/100 kg seed): 5 | CORN ROOTWORM DAMAGE IN EACH IOWA CLASS (IOWA 1-6 SCALE) 6 (number of plants in Iowa class 6, imidacloprid at 400 g/100 kg seed): 0

Reference: patent publication US9816104B2, “Compositions and methods for deploying a transgenic refuge as a seed blend” (priority 2000, dated 2017)
